Measurements from BindingDB's records for doi:10.1021/cc9001026 (Bristol-Myers Squibb, 2010).
Several values for one entry are separate records, joined by “and”; a condition that tells them apart may be missing. Equal values may be shown once.

Target: Gag-Pol polyprotein (Human immunodeficiency virus type 1 group M subtype B (isolate HXB2), UniProt P04585)
Test: Inhibition Assay
From the text: Inhibition assay using HIV-1 integrase.

Structure (SMILES) | IC50
O=C(NCc1ccc(Cl)c(Cl)c1)C1C(=O)C(=O)N(CC2CC2)C1c1cccc2c1OCO2 (centres undefined) [Integrase inhibitor, 2{1,1,1}] | 0.05 µM and 0.039 µM
NCc1ccc(Cl)c(Cl)c1 [Integrase inhibitor, R1{1}] | 1.34 µM
CCOCCN [Integrase inhibitor, R3{5}] | 4.13 µM
COc1ccc(CN)cc1 | 3.92 µM
CCOc1ccccc1C1C(C(=O)NCc2ccc(Cl)c(Cl)c2)C(=O)C(=O)N1CCCCC(NC(C)=O)C(=O)O (centres undefined) [Integrase inhibitor, 2{1,2,2}] | 0.057 µM and 0.026 µM
O=Cc1cccc2c1OCO2 [Integrase inhibitor, R2{1}] | 3.05 µM
O=Cc1ccccc1OCc1ccccc1 [Integrase inhibitor, R2{4}] | 1.75 µM
CCOc1ccccc1C=O [Integrase inhibitor, R2{2}] | 1.02 µM
O=Cc1ccccc1OCC(=O)O [Integrase inhibitor, R2{3}] | 2.03 µM
NCC1CC1 [Integrase inhibitor, R3{1}] | 3.64 µM
NCc1ccc(F)cc1 [Integrase inhibitor, R1{2}] | 4.05 µM
O=Cc1ccccc1C(F)(F)F [Integrase inhibitor, R2{5}] | 7.86 µM
CC(=O)NC(CCCCN1C(=O)C(=O)C(C(=O)NCc2ccc(Cl)c(Cl)c2)C1c1cccc2c1OCO2)C(=O)O (centres undefined) [Integrase inhibitor, 2{1,1,2}] | 0.067 µM and 0.029 µM
CCOCCCN1C(=O)C(=O)C(C(=O)NCc2ccc(Cl)c(Cl)c2)C1c1ccccc1Oc1ccccc1 (centres undefined) [Integrase inhibitor, 2{1,4,4}] | 0.09 µM and 0.08 µM
NCc1cc(Cl)cc(Cl)c1 [Integrase inhibitor, R1{4}] | 2.47 µM
CCOCCCN [Integrase inhibitor, R3{4}] | 2.11 µM
CN [Integrase inhibitor, R3{3}] | 2.7 µM
COc1ccc(CNC(=O)C2C(=O)C(=O)N(CC3CC3)C2c2ccccc2C(F)(F)F)cc1 (centres undefined) [Integrase inhibitor, 2{3,5,1}] | 12 µM and 10.3 µM
CC(=O)N[C@H](CCCCN)C(=O)O [Integrase inhibitor, R3{2}] | 1.84 µM
